The text below walks through data of patent US11547697B2, “Heterocyclic compounds and uses thereof” (MILLENNIUM PHARMACEUTICALS, INC., priority 2009, dated 2023).

pIC50: −log10 of the molar value. Bounds are passed on as bounds.

p110α/p85α, sequence (P42336 whole entry): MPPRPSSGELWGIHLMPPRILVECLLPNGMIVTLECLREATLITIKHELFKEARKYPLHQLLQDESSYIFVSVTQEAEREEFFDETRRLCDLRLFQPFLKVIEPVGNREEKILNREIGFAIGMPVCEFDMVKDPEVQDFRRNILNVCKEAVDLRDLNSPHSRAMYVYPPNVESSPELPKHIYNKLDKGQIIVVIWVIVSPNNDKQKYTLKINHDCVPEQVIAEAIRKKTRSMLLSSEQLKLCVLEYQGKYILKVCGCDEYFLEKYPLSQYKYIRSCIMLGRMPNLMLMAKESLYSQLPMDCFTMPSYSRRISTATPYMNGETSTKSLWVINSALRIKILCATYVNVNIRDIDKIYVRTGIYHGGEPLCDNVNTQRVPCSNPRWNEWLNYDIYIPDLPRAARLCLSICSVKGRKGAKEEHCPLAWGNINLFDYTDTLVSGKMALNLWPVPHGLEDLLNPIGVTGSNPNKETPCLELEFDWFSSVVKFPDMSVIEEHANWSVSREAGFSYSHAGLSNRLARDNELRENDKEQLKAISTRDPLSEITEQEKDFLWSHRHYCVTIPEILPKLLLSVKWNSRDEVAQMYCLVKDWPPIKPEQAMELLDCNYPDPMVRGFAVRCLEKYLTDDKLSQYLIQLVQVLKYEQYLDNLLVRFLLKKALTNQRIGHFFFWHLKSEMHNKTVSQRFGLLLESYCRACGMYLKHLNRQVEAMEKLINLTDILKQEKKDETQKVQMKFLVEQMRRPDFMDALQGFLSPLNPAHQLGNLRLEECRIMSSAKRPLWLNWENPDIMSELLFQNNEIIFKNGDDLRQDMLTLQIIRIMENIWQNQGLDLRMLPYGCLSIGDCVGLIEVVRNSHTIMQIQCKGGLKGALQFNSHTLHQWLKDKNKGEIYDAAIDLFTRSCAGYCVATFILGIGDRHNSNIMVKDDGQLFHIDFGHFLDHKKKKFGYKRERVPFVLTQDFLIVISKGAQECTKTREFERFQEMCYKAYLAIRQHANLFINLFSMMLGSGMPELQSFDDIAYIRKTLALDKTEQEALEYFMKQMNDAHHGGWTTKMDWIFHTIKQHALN
p110α/p85α, sequence (P27986 whole entry partner): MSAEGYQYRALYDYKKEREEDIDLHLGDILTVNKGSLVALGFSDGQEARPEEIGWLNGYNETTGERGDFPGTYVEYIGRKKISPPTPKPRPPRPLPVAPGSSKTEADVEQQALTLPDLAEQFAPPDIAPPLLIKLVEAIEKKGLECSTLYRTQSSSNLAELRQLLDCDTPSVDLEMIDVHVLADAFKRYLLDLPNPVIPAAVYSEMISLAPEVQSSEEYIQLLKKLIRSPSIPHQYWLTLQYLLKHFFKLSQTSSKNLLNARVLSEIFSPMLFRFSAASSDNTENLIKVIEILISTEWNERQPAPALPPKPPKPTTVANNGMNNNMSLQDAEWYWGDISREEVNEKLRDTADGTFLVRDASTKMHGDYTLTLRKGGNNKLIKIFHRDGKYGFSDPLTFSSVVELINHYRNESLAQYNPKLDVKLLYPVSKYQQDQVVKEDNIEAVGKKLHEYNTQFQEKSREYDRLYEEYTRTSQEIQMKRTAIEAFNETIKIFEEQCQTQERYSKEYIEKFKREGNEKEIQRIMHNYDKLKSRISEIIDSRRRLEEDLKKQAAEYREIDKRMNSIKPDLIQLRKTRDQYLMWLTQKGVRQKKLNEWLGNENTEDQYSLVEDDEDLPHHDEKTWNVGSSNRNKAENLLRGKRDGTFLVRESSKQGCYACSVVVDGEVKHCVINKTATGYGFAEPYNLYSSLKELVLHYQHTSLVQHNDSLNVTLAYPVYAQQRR

The first test addresses p110α/p85α (Homo sapiens (Human), UniProt P42336). Put plainly: PI 3-Kinase (human) HTRF assay, p110α/p85α. The conditions noted are these: in vitro; read-out: PI3K α IC50. In kind it is biochemical.
Take `Nc1nc2cc(-c3ccc4ncn(C5CCC5)c(=O)c4c3)ccc2o1` [compound 205]: the pIC50 (commonly −log10 of the IC50, conventionally taken in molar units) is more than 7.00. `Nc1ncc(-c2cnc3ccc(-c4ccc5oc(N)nc5c4)cc3n2)cn1` [compound 210]: the pIC50 is more than 6.00. On the same count and under the same terms, the result for `CCN(CC)CCn1cnc2ccc(-c3ccc4oc(N)nc4c3)cc2c1=O` [compound 224] reads more than 5.00. On to `Nc1nc2cc(-c3ccc4ncn(C5CCCC5)c(=O)c4c3)ccc2o1` [compound 256], for which the pIC50 was more than 5.00. With `CN1CCN(CCn2cnc3ccc(-c4ccc5oc(N)nc5c4)cc3c2=O)CC1` [compound 280], the pIC50 was more than 5.00. Same read-out and setting: next, `Nc1nc2cc(-c3ccc4ncn(CCCN5CCOCC5)c(=O)c4c3)ccc2o1` [compound 290]: more than 6.00; `CN1CCN(CCCn2cnc3ccc(-c4ccc5oc(N)nc5c4)cc3c2=O)CC1` [compound 291]: more than 6.00; `CN(C)CCn1cnc2ccc(-c3ccc4oc(N)nc4c3)cc2c1=O` [compound 292]: more than 5.00.

With `CN(C)C1CCN(C(=O)c2cnc3ccc(-c4ccc5oc(N)nc5c4)cn23)CC1` [compound 304], the pIC50 was more than 6.00. On to `Nc1nc2ccc(-c3ccc4nnc(C(=O)N5CCCC5)n4c3)cc2o1` [compound 305], for which the pIC50 is more than 5.00. Same read-out and setting: next, `Cc1nc(NC(=O)N2CCC[C@H]2C(N)=O)sc1-c1ccc2oc(N)nc2c1` [compound 311]: more than 6.00. On the same count and under the same terms, next, `Cc1cc2oc(N)nc2cc1-c1ccc2ncc(N3CC(N4CCOCC4)C3)nc2c1` [compound 353]: more than 5.00. Take `Nc1nc2cc(-c3ccc4ncc(C(=O)N5CCOCC5)n4c3)c(Cl)cc2o1` [compound 370]: the pIC50 is more than 5.00. On to `Cc1c(-c2ccc3oc(N)nc3c2)ccc2ncc(N3CC(N4CCOCC4)C3)nc12` [compound 383], for which the pIC50 is more than 6.00.

The same test, now with this note: read-out: PI3K α IC50.
As to `Nc1nc2cc(-c3ccc4ncn(C5CCOCC5)c4c3)ccc2o1` [compound 48], the pIC50 was more than 5.00.

As for `Nc1nc2cc(-c3ccc4ncc(N5CCOCC5)n4c3)ccc2o1` [compound 53], the pIC50 was more than 5.00. Same read-out and setting: next, `Nc1nc2cc(-c3ccc4ncn(C5CCOCC5)c(=O)c4c3)ccc2o1` [compound 55]: more than 6.00. The same measure, in the same setting: next, `Nc1nc2ccc(-c3ccc4ncn(C5CCOCC5)c(=O)c4c3)cc2o1` [compound 63]: more than 5.00; `CC(=O)N1CCC(n2cnc3ccc(-c4ccc5oc(N)nc5c4)cc3c2=O)CC1` [compound 66]: more than 5.00. For the compound `CS(=O)(=O)N1CCC(n2cnc3ccc(-c4ccc5oc(N)nc5c4)cc3c2=O)CC1` [compound 67], the pIC50 was more than 6.00. Regarding `CN1CCN(c2nc3cc(-c4ccc5oc(N)nc5c4)ccc3c(=O)n2C)CC1` [compound 79], the pIC50 was more than 5.00. Same read-out and setting: next, `Cn1c(N2CCOCC2)nc2cc(-c3ccc4oc(N)nc4c3)ccc2c1=O` [compound 80]: more than 6.00. On the same count and under the same terms, next, `Nc1nc2cc(-c3ccc4ncc(C(=O)N5CCOCC5)cc4c3)ccc2o1` [compound 97]: more than 5.00. On to `CN1CCN(C(=O)c2cnc3cnc(-c4ccc5oc(N)nc5c4)cn23)CC1` [compound 123], for which the pIC50 was more than 5.00. For the compound `CC1CN(C(=O)c2cnc3ccc(-c4ccc5oc(N)nc5c4)cn23)CC(C)N1` (stereo not shown) [compound 142], the negative logarithm of the IC50 (pIC50) is more than 5.00. Take `Nc1nc2cc(-c3ccc4ncc(-c5ccnc(N6CCOCC6)c5)nc4c3)ccc2o1` [compound 150]: the pIC50 was more than 6.00. On the same count and under the same terms, the result for `CN1CCN(C(=O)c2cnc3ccc(-c4ccc5oc(N)nc5c4)cc3n2)CC1` [compound 157] reads more than 5.00. The same measure, in the same setting: the result for `Nc1nc2cc(-c3ccc4ncc(C(=O)N5CCOCC5)nc4c3)ccc2o1` [compound 158] reads more than 5.00.

On to `Nc1nc2cc(-c3ccc4ncc(-c5ccc(N6CCOCC6)nc5)nc4c3)ccc2o1` [compound 167], for which the pIC50 is more than 5.00. `Nc1nc2cc(-c3ccc4ncc(-c5ccccc5)nc4c3)ccc2o1` [compound 180]: the pIC50 is more than 6.00.

In the case of `Cc1ncccc1-c1cnc2ccc(-c3ccc4oc(N)nc4c3)cc2n1` [compound 185], the pIC50 is more than 6.00.
